How the values were obtained:
Format in all cases: functional
Conditions in all cases: read-out: IZ
Escherichia coli [1] = assay: Antibacterial activity against Escherichia coli at 250 ppm after 1 hr by agar well diffusion method
Escherichia coli [2] = assay: Antibacterial activity against Escherichia coli at 500 ppm after 1 hr by agar well diffusion method
Escherichia coli [3] = assay: Antibacterial activity against Escherichia coli at 750 ppm after 1 hr by agar well diffusion method
Staphylococcus aureus [4] = assay: Antibacterial activity against Staphylococcus aureus at 750 ppm after 1 hr by agar well diffusion method
Staphylococcus aureus [5] = assay: Antibacterial activity against Staphylococcus aureus at 500 ppm after 1 hr by agar well diffusion method
Staphylococcus aureus [6] = assay: Antibacterial activity against Staphylococcus aureus at 250 ppm after 1 hr by agar well diffusion method
Staphylococcus aureus [7] = assay: Antibacterial activity against Staphylococcus aureus at 50 ppm after 1 hr by agar well diffusion method
Staphylococcus aureus [8] = assay: Antibacterial activity against Staphylococcus aureus at 100 ppm after 1 hr by agar well diffusion method

Work on `N#Cc1c(O)nc(N)nc1-c1cccc(Cl)c1` yielded a zone of inhibition at 250 ppm (Escherichia coli [1]) of 4 mm, a zone of inhibition at 500 ppm (Escherichia coli [2]) of 7 mm and a zone of inhibition at 750 ppm (Escherichia coli [3]) of 11 mm. The zone of inhibition at 750 ppm (Staphylococcus aureus [4]) was 5 mm.

With `COc1cc(-c2nc(N)nc(O)c2C#N)cc(OC)c1OC` the zone of inhibition at 500 ppm (Staphylococcus aureus [5]) was 10 mm and the zone of inhibition at 750 ppm (Staphylococcus aureus [4]) was 13 mm.

With `N#Cc1c(O)nc(N)nc1-c1ccccc1[N+](=O)[O-]` the zone of inhibition at 250 ppm (Escherichia coli [1]) was 3 mm, the zone of inhibition at 500 ppm (Escherichia coli [2]) was 5 mm and the zone of inhibition at 750 ppm (Escherichia coli [3]) was 9 mm. It also gave a zone of inhibition at 500 ppm (Staphylococcus aureus [5]) of 12 mm and a zone of inhibition at 750 ppm (Staphylococcus aureus [4]) of 15 mm.

For `N#Cc1c(O)nc(N)nc1-c1cccc([N+](=O)[O-])c1`, the zone of inhibition at 250 ppm (Staphylococcus aureus [6]) was 4 mm, the zone of inhibition at 500 ppm (Staphylococcus aureus [5]) was 8 mm and the zone of inhibition at 750 ppm (Staphylococcus aureus [4]) was 14 mm.

`N#Cc1c(O)nc(N)nc1-c1ccccc1Cl` gave a zone of inhibition at 500 ppm (Escherichia coli [2]) of 8 mm, a zone of inhibition at 750 ppm (Escherichia coli [3]) of 10 mm and a zone of inhibition at 250 ppm (Staphylococcus aureus [6]) of 5 mm. It also gave a zone of inhibition at 500 ppm (Staphylococcus aureus [5]) of 9 mm and a zone of inhibition at 750 ppm (Staphylococcus aureus [4]) of 14 mm.

Compound `N#Cc1c(O)nc(N)nc1-c1ccc(O)cc1` has a zone of inhibition at 500 ppm (Escherichia coli [2]) of 6 mm, a zone of inhibition at 750 ppm (Escherichia coli [3]) of 10 mm and a zone of inhibition at 250 ppm (Staphylococcus aureus [6]) of 5 mm. It also gave a zone of inhibition at 500 ppm (Staphylococcus aureus [5]) of 8 mm and a zone of inhibition at 750 ppm (Staphylococcus aureus [4]) of 11 mm.

Compound `CN(C)c1ccc(-c2nc(N)nc(O)c2C#N)cc1` has a zone of inhibition at 250 ppm (Escherichia coli [1]) of 4 mm, a zone of inhibition at 500 ppm (Escherichia coli [2]) of 7 mm and a zone of inhibition at 750 ppm (Escherichia coli [3]) of 11 mm. It also gave a zone of inhibition at 250 ppm (Staphylococcus aureus [6]) of 7 mm, a zone of inhibition at 500 ppm (Staphylococcus aureus [5]) of 9 mm and a zone of inhibition at 750 ppm (Staphylococcus aureus [4]) of 11 mm.

For `N#Cc1c(O)nc(N)nc1C/C=C/c1ccccc1`, the zone of inhibition at 250 ppm (Escherichia coli [1]) was 7 mm, the zone of inhibition at 500 ppm (Escherichia coli [2]) was 9 mm and the zone of inhibition at 750 ppm (Escherichia coli [3]) was 12 mm. The zone of inhibition at 500 ppm (Staphylococcus aureus [5]) was 5 mm and the zone of inhibition at 750 ppm (Staphylococcus aureus [4]) was 9 mm.

Work on `COc1ccc(C2NC(=N)NC(=O)C2C#N)cc1` (stereo unspecified) yielded a zone of inhibition at 750 ppm (Staphylococcus aureus [4]) of 5 mm.

For `N#Cc1c(O)nc(N)nc1-c1ccccc1`, the zone of inhibition at 50 ppm (Staphylococcus aureus [7]) was 10 mm, the zone of inhibition at 100 ppm (Staphylococcus aureus [8]) was 12 mm and the zone of inhibition at 250 ppm (Staphylococcus aureus [6]) was 15 mm. The zone of inhibition at 500 ppm (Staphylococcus aureus [5]) was 15 mm and the zone of inhibition at 750 ppm (Staphylococcus aureus [4]) was 18 mm.
